One experiment addresses T1, PAF-receptor (Oryctolagus cuniculus, UniProt G1TEI7).
T1 construct: is regarded as a PAF-receptor membrane fraction; from tissue; host or cells: rabbit blood platelets (membrane fraction from sucrose density layers)
The experiment is described as follows: Inhibitor effect on PAF-receptor binding. The note with it: specific binding of ^3H-PAF; rabbit platelet PAF-receptor membrane fraction; read-out: Inhibition of receptor binding (IC50 M). The source says:
Inhibitor effect on PAF-receptor binding
Blood samples were drawn from the heart of a rabbit. 1 part by volume of each sample was mixed immediately with 1/9 part of 0.77M solution of disodium ethylenediaminetetraacetate. After a similar procedure to that described in Experiment 2, a precipitated blood platelet sample was obtained. This blood platelet sample was washed, and, after repeated freezing and thawing for cellular breakdown, it was laid on top of double layers consisting of […] and 1.5M sucrose solutions. By centrifugation at 63,500×G, for 2 hours at 4° C., the fraction obtained from the interface between the 0.25M and 1.5M sucrose solutions was collected and is regarded as a PAF-receptor membrane fraction. A receptor binding experiment was conducted according to a method very similar to that reported by Hwang et al. [San-Bao Hwang et al.: J. Biol. Chem. 260, 15639-15645 (1985)]. The specific binding of ^3 H-PAF was measured using a Wattman GF/C filter. A test compound was dissolved in dimethyl sulfoxide and diluted 100 fold with a buffer solution containing 0.5% bovine serum albumin. Nine parts by weight of the solution, for a receptor binding experiment, was mixed with one part of the test compound solution prepared above. The percent inhibition of the specific binding was plotted for a log concentration of the test compound, and the 50% inhibitory concentration (IC50) was calculated from the linear line connecting all the plotted points.

In another experiment the test system is PAF-induced hypotension. The experiment is described as follows: Inhibition of PAF-induced hypotension. The class given is in vivo, Wistar-Imamichi rats. The note with it: Rattus norvegicus, iv, 1 min; anesthetized rats; l-C16:0 PAF 10 ng/kg i.v.; test compound i.v. cumulatively, 1 min before PAF; read-out: Inhibitory effect ID50. How it is done: Inhibition of PAF-induced hypotension
The test animals used were Wistar-Imamichi rats, each weighing from 350 to 450 g, anesthetized with Inactin (90 mg/kd, intraperitoneally).
Blood pressure was continuously measured throughout the experiment through a cannula inserted into the femoral artery. Each drug sample to be tested was intravenously injected through a cannula inserted into the femoral vein.
At first, l-C16:0 PAF was injected intravenously in amounts of 10 ng/kg at each injection at intervals of 5 minutes until the degree of the hypotensive response became constant. Then, each drug sample to be treated was intravenously injected. After one minute, the same dose of PAF was administered again. The drug sample was cumulatively administered. From its inhibition rate against the PAF-induced hypotensive effect, the 50% inhibitive dose (ID50) was determined, and is regarded as an index of PAF-antagonist activity. For administration, the PAF was dissolved in physiological saline solution containing 0.25% w/v of bovine serum albumin (BSA). The compounds under test were dissolved in dimethylformamide for use.
CV-3988 is disclosed in U.S. Pat. No. 4,408,052, and is structurally related to PAF itself.
In this Table, the compounds of the invention are identified by the number of the foregoing Example in which they were prepared.

Experiment [1] has as its system blood platelet (PAF-induced aggregation). The experiment in a line: Inhibitory effect in vitro against PAF-induced blood platelet aggregation. The class given is cell-based. The note with it: Oryctolagus cuniculus, 5 min; rabbit platelet rich plasma; l-C16:0 PAF final 10^-8 ~3×10^-8 M; 5 min observation. How it is done: Inhibitory effect in vitro against PAF-induced blood platelet aggregation
Blood samples were drawn from a rabbit and one part by volume of each sample was immediately mixed with 1/9 part of a 3.8% w/v aqueous solution of sodium citrate. The samples were centrifuged at 150×G at room temperature for 15 minutes to obtain a platelet rich plasma (PRP) fraction from the upper layer. The remains were further centrifuged at 1,000×G for 15 minutes to obtain a platelet poor plasma (PPP) fraction from the upper layer. The PRP and PPP fractions were mixed appropriately, to obtain a sample in which the final count of blood platelets was adjusted to be 6×10^5 per ul. According to the method reported by Born et al. [G. V. R. Born et al.: J. Physiol. 62, 67-68 (1962)], blood platelet aggregation was determined by an increase in light transmission measured using an aggregometer. 3 ul of a solution of the test compound in dimethyl sulfoxide were added to 272 ul of PRP, and, after 1 minute, 25 ul of a physiological saline solution containing l-c16:0 PAF (at a final concentration of 10^-8 ~3×10^-8 M) were added. […] At the end of this value and the value of PAF-induced aggregation which was observed when dimethyl sulfoxide only was used without the addition of any test compound. IC50 values were calculated from the dose-response curve.

The results in this text go back to patent US5192766A, “N-acryloylpiperazine derivatives, their preparation and their use as PAF antagonists” (Sankyo Company, Limited, priority 1989, dated 1993).

T1 sequence (G1TEI7 1-342): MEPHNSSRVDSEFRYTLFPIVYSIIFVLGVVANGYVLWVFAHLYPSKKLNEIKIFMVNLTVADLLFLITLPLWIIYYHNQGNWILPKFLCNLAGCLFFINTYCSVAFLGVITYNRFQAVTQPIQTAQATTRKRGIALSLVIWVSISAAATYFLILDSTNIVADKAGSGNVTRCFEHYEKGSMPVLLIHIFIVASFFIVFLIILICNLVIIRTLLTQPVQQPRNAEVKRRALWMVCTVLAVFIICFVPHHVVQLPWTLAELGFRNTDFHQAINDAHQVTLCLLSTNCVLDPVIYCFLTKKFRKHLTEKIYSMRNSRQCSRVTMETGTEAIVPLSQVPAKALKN

As a reminder, the IC50 is the midpoint of a concentration-inhibition curve. As to `COc1cccc(/C(=C/C(=O)N2CCN(C(=O)c3cc(OC)c(OC)c(OC)c3)CC2)c2ccccc2Cl)c1` [Example 72, 1-[(Z)-3-(3-Methoxyphenyl)-3-(2-chlorophenyl)acryloyl]-4-(3,4,5-trimethoxybenzoyl)piperazine], the half-inhibitory concentration (IC50) on PAF-receptor is 26 nM. For the same molecule, the ED50 in the experiment on PAF-induced hypotension came to 9.7 µg/kg.

With `COc1cccc(/C(=C/C(=O)N2CCN(C(=O)c3cc(OC)c(OC)c(OC)c3)CC2)c2cccc(Cl)c2)c1` [Example 43, 1-[(Z)-3-(3-Chlorophenyl)-3-(3-methoxyphenyl)acryloyl]-4-(3,4,5-trimethoxybenzoyl)piperazine], the IC50 on PAF-receptor worked out at 13 nM. In addition, the ED50 in the experiment with PAF-induced hypotension worked out at 4.4 µg/kg.

On to `CCOc1ccc(/C(=C/C(=O)N2CCN(C(=O)c3cc(OC)c(OC)c(OC)c3)CC2)c2cc(Cl)cc(Cl)c2)cc1` [Example 85, 1-[(Z)-3-(4-Ethoxyphenyl)-3-(3,5-dichlorophenyl)acryloyl]-4-(3,4,5-trimethoxybenzoyl)piperazine], for which, on PAF-receptor, the IC50 was determined as 20 nM. For the same molecule, in the experiment on PAF-induced hypotension, the ED50 turned out to be 6.1 µg/kg.

Regarding `COc1ccc(/C(=C/C(=O)N2CCN(C(=O)c3cc(OC)c(OC)c(OC)c3)CC2)c2cccc(Cl)c2Cl)cc1` [Example 81, 1-[(Z)-3-(4-Methoxyphenyl)-3-(2,3-dichlorophenyl)acryloyl]-4-(3,4,5-trimethoxybenzoyl)piperazine], the 50% inhibitory concentration (IC50) amounted to 32 nM at PAF-receptor and 31 nM in experiment [1].

On to `COc1ccc(/C(=C/C(=O)N2CCN(C(=O)c3cc(OC)c(OC)c(OC)c3)CC2)c2ccccc2Cl)cc1` [Example 42, 1-[(Z)-3-(2-chlorophenyl)-3-(4-methoxyphenyl)acryloyl]-4-(3,4,5-trimethoxybenzoyl)piperazine], for which, at PAF-receptor, the half-maximal inhibitory concentration (IC50) came out at 20 nM. The ED50 with PAF-induced hypotension turned out to be 5 µg/kg.

With `COc1cc(C(=O)N2CCN(C(=O)C=C(c3cccc(Cl)c3)c3cccc(Cl)c3)CC2)cc(OC)c1OC` [Example 41, 1-[3,3-Bis(3-chlorophenyl)acryloyl]-4-(3,4,5-trimethoxybenzoyl)piperazine], the IC50 on PAF-receptor amounted to 170 nM; in experiment [1], 67 nM. In addition, the ED50 in the experiment with PAF-induced hypotension was determined as 7.1 µg/kg.

Take `COc1ccc(/C(=C/C(=O)N2CCN(C(=O)c3cc(OC)c(OC)c(OC)c3)CC2)c2ccc(Cl)c(Cl)c2)cc1` [Example 31, 1-[(Z)-3-(3,4-Dichlorophenyl)-3-(4-methoxyphenyl)acryloyl]-4-(3,4,5-trimethoxybenzoyl)piperazine]: the IC50 amounted to 14 nM on PAF-receptor and 44 nM in experiment [1]. In addition, the ED50 in the experiment on PAF-induced hypotension turned out to be 6.7 µg/kg.

Turning to `COc1cccc(/C(=C\C(=O)N2CCN(C(=O)c3cc(OC)c(OC)c(OC)c3)CC2)c2cccc(Cl)c2)c1` [Example 44, 1-[(E)-3-(3-Chlorophenyl)-3-(3-methoxyphenyl)acryloyl]-4-(3,4,5-trimethoxybenzoyl)piperazine], the IC50 at PAF-receptor was 15 nM. In addition, in the experiment with PAF-induced hypotension, the ED50 came to 7.5 µg/kg.

As to `COc1cc(C(=O)N2CCN(C(=O)C=C(c3ccccc3)c3ccccc3)CC2)cc(OC)c1OC` [Example 1, 1-(3,3-Diphenylacryloyl)-4-(3,4,5-trimethoxybenzoyl)piperazine], the 50% inhibitory concentration (IC50) is 47 nM at PAF-receptor and 320 nM in experiment [1]. The ED50 in the experiment on PAF-induced hypotension turned out to be 57 µg/kg.

As for `CCc1ccc(/C(=C/C(=O)N2CCN(C(=O)c3cc(OC)c(OC)c(OC)c3)CC2)c2cccc(Cl)c2)cc1` [Example 83, 1-[(Z)-3-(4-Ethylphenyl)-3-(3-chlorophenyl)acryloyl]-4-(3,4,5-trimethoxybenzoyl)piperazine], on PAF-receptor, the half-maximal inhibitory concentration (IC50) worked out at 14 nM. In the experiment on PAF-induced hypotension, the ED50 was found to be 11 µg/kg.

Turning to `COc1cc(C(=O)N2CCN(C(=O)C=C(c3cccc(C)c3)c3cccc(C)c3)CC2)cc(OC)c1OC` [Example 56, 1-[3,3-Bis(3-Methylphenyl)acryloyl]-4-(3,4,5-trimethoxybenzoyl)piperazine], at PAF-receptor, the concentration for half-maximal inhibition (IC50) was determined as 35 nM. For the same molecule, in the experiment with PAF-induced hypotension, the ED50 was found to be 11 µg/kg.

Consider `COc1ccc(/C(=C/C(=O)N2CCN(C(=O)c3cc(OC)c(OC)c(OC)c3)CC2)c2cc(C(F)(F)F)cc(C(F)(F)F)c2)cc1` [Example 84, 1-[(Z)-3-(4-Methoxyphenyl)-3-(3,5-di-trifluoromethylphenyl)acryloyl]-4-(3,4,5-trimethoxybenzoyl)piperazine], for which, at PAF-receptor, the IC50 came out at 40 nM. The ED50 in the experiment with PAF-induced hypotension was 8.6 µg/kg.

Turning to `COc1ccc(/C(=C/C(=O)N2CCN(C(=O)c3cc(OC)c(OC)c(OC)c3)CC2)c2ccc(C)cc2)cc1OC` [Example 35, 1-[(E)-3-(3,4-Dimethoxyphenyl)-3-(4-methylphenyl)acryloyl]-4-(3,4,5-trimethoxybenzoyl)piperazine], the ED50 in the experiment with PAF-induced hypotension was 12 µg/kg. Also, the IC50 in experiment [1] came to 110 nM.

Take `COc1ccc(/C(=C/C(=O)N2CCN(C(=O)c3cc(OC)c(OC)c(OC)c3)CC2)c2cccc(F)c2)cc1` [Example 74, 1-[(Z)-3-(4-Methoxyphenyl)-3-(3-fluorophenyl)acryloyl]-4-(3,4,5-trimethoxybenzoyl)piperazine]: the ED50 in the experiment with PAF-induced hypotension stood at 5.5 µg/kg. This molecule also displayed an IC50 in experiment [1] of 58 nM.

Consider `COc1ccc(/C(=C/C(=O)N2CCN(C(=O)c3cc(OC)c(OC)c(OC)c3)CC2)c2cccc(C(F)(F)F)c2)cc1OC` [Example 33, 1-[(E)-3-(3,4-Dimethoxyphenyl)-3-(3-trifluoromethylphenyl)acryloyl]-4-(3,4,5-trimethoxybenzoyl)piperazine], for which the ED50 in the experiment with PAF-induced hypotension came to 7.8 µg/kg. In experiment [1], this molecule had an IC50 of 43 nM.

As for `CCCOc1cccc(/C(=C/C(=O)N2CCN(C(=O)c3cc(OC)c(OC)c(OC)c3)CC2)c2cccc(Cl)c2)c1` [Example 70, 1-[(Z)-3-(3-Propoxyphenyl)-3-(3-chlorophenyl)acryloyl]-4-(3,4,5-trimethoxybenzoyl)piperazine], the ED50 in the experiment on PAF-induced hypotension was found to be 3.3 µg/kg. This molecule gave an IC50 in experiment [1] of 30 nM.

For the molecule `COc1ccc(/C(=C/C(=O)N2CCN(C(=O)c3cc(OC)c(OC)c(OC)c3)CC2)c2cc(C)cc(C)c2)cc1` [Example 82, 1-[(Z)-3-(4-Methoxyphenyl)-3-(3,5-dimethylphenyl)acryloyl]-4-(3,4,5-trimethoxybenzoyl)piperazine], the ED50 in the experiment on PAF-induced hypotension is 13 µg/kg. In experiment [1], the concentration for half-maximal inhibition (IC50) was found to be 9.9 nM.

As for `COc1ccc(/C(=C\C(=O)N2CCN(C(=O)c3cc(OC)c(OC)c(OC)c3)CC2)c2ccc(OC)c(OC)c2)cc1` [Example 29, 1-[(E)-3-(3,4-Dimethoxyphenyl)-3-(4-methoxyphenyl)acryloyl]-4-(3,4,5-trimethoxybenzoyl)piperazine], the ED50 in the experiment on PAF-induced hypotension turned out to be 48 µg/kg. The same molecule yielded a concentration for half-maximal inhibition (IC50) in experiment [1] of 180 nM.

`COc1ccc(C(=CC(=O)N2CCN(C(=O)c3cc(OC)c(OC)c(OC)c3)CC2)c2ccc(OC)c(OC)c2)cc1OC` [Example 28, 1-[Bis(3,4-dimethoxyphenyl)acryloyl]-4-(3,4,5-trimethoxybenzoyl)piperazine]: in the experiment on PAF-induced hypotension, the ED50 amounted to 39 µg/kg. The same molecule had a half-inhibitory concentration (IC50) in experiment [1] of 230 nM.

Turning to `CCCCCCCCCCCCCCCCCCNC(=O)OCC(COP(=O)([O-])OCC[n+]1ccsc1)OC` (racemic) [CV-3988, reference compound], the IC50 on PAF-receptor was 1600 nM. Moreover, the ED50 in the experiment on PAF-induced hypotension turned out to be 420 µg/kg.

`CCCOc1cccc(/C(=C/C(=O)N2CCN(C(=O)c3cc(OC)c(OC)c(OC)c3)CC2)c2ccccc2)c1` [Example 76, 1-[(E)-3-(3-Propoxyphenyl)-3-phenylacryloyl]-4-(3,4,5-trimethoxybenzoyl)piperazine]: the ED50 in the experiment with PAF-induced hypotension was 9.2 µg/kg. In addition, in experiment [1], half-maximal inhibition (IC50) was put at 83 nM.
